Results on 89 molecules are retold here after a melting point compilation (Tetko et al.; mined from patent text by program, amines drawn as free bases though some values may be those of a salt).

For orientation: melting point means the temperature of the solid-liquid transition.

`CCOC(=O)c1cc2ccc(SCc3ccc(OC)cc3)cc2nc1Cl`: the melting point fell in the range of 110 to 112 °C.

Molecule `CNC(=O)c1cnn(-c2ccccc2)c1Br` gave a melting point of 157 to 159 °C.

The molecule `Cc1oc2ccccc2c1C(=O)c1ccc(Cl)c(N)c1` displayed a melting point of 103 °C.

Take `COc1cc2c(Nc3ccc(Cl)cc3F)ncnc2cc1OCC1CCOC1` (centres undefined): the melting point was in the range of 201 to 202 °C.

With `N#Cc1cnc2c(oc3ccccc32)c1Oc1ccc(Cl)cc1F`, the melting point lay in the range of 138 to 140 °C.

For the molecule `CCOC(=O)NC[C@H]1CN(c2ccc(N3CCC(n4ncnn4)CC3)c(F)c2)C(=O)O1`, the melting point was 176 to 178 °C.

Turning to `NC(=O)c1cccc([N+](=O)[O-])c1N`, the melting point was 238 to 239 °C.

With `CCOC(=O)c1c(C(F)(F)F)nn(C)c1N`, the melting point lay within 120 to 121 °C.

The molecule `Cc1ncc2c(c1OCC(=O)O)COC2(C)c1ccc(F)cc1` (centres undefined) gave a melting point of 184 to 186 °C.

On to `CC(C)Oc1cc(F)nc(N)n1`, for which the melting point fell in the range of 66 to 68 °C.

The molecule `CC(C)=Cc1ccc(-c2ccc(CCCI)cc2)cc1` gave a melting point of 58 to 61 °C.

For the molecule `O=C(c1cc2cc([N+](=O)[O-])ccc2o1)C12CC3CC(CC(C3)C1)C2`, the melting point is 151 to 153 °C.

In turn, `O=C(O)COc1ccc2c(-c3ccc(O)cc3F)noc2c1Cl` showed a melting point of 216 to 218 °C.

As for `Cc1nc2c(cc1C(=O)NC(=N)N)CCCCC2O` (centres undefined), the melting point is 207 to 210 °C.

Regarding `O=S(=O)(Cl)c1ccccc1Cn1cncn1`, the melting point was 180 to 195 °C.

Molecule `COc1ccc(-c2ccc(C(=O)Nc3ccc4cc(CN5CCCC5)cnc4c3C)c(F)c2)cc1` showed a melting point of 164 to 166 °C.

The molecule `CCOC(=O)c1ccc(NC2(C#N)CCCCC2)cc1` displayed a melting point of 101 to 102 °C.

In turn, `CC(C)C(=O)Nc1cc([N+](=O)[O-])c(Sc2cccc3cnccc23)cc1N` came in with a melting point of 219 to 221 °C.

`CCCCCCCCCCCCCCCCCCOc1cc(N)cc(N(CC(=O)O)CC(=O)O)c1` showed a melting point of 185 to 195 °C.

Molecule `Cc1sc(C)c2c(=O)n3cc(C(N)=O)ccc3nc12` gave a melting point of 272 to 275 °C.

In the case of `Cc1cccc(COc2cccc(OCc3ccc4ccccc4n3)c2)c1OCC(=O)O`, the melting point was 154 to 157 °C.

As to `CC(C)(C)NC(=O)c1nn(-c2ccc(F)cc2)c2c1C1CC3CC(C1)CC2C3`, the melting point lay in the range of 214 to 216 °C.

Take `COC(=O)C(CNC(=O)c1ccccc1)NC(=O)C(C)(C)NC(=O)C(SC(C)=O)C(C)C` (centres undefined): the melting point is 48 to 54 °C.

Regarding `COC(=O)CS(=O)(=O)C(C)c1ccc(-c2ccccc2)cc1` (centres undefined), the melting point fell in the range of 79 to 80 °C.

`COCCc1nc2c(N)nc3c(c2n1CCCNC(=O)c1ccccc1)CCCC3` yielded a melting point of 168 to 170 °C.

In the case of `Cc1ccc(C(C)C)n1N`, the melting point lay in the range of 21 to 24 °C.

As to `CCOC(=O)CCN1CCC[C@H](NCc2ccccc2OC)[C@@H]1c1ccccc1` (relative stereo), the melting point lay in the range of 110 to 112 °C.

`CCCCN(CCCC)c1ccc(C=Cc2ccc(C(C#N)=c3ccc(=C(C#N)C#N)cc3)s2)c(OC)c1`: the melting point lay within 211 to 214 °C.

`Cc1cc(-c2ccc(Cl)c(Cl)c2)nc(-c2cccc(-c3cccc(S(N)(=O)=O)c3)c2)n1`: the melting point is 206 °C.

`CCOC(=O)c1cc(-c2csc(-c3ccnc(NC)c3)n2)c(=O)[nH]c1C(C)C` returned a melting point of more than 230 °C.

The molecule `CC(=O)Nc1cccc2c1C(=O)c1c-2n[nH]c1-c1ccc(N(C)C)cc1` registered a melting point of more than 300 °C.

Regarding `COc1ccccc1NC(=O)Nc1ccc(CC(=O)OC(C)(C)C)cc1C`, the melting point fell in the range of 157 to 158 °C.

As to `O=C(O)c1ccc(C#Cc2ccc(OCCCO)c(C34CC5CC(CC(C5)C3)C4)c2)cc1`, the melting point fell in the range of 290 to 292 °C.

As to `O=C(O)C1=Cc2cc(I)ccc2OC1C(F)(F)F` (centres undefined), the melting point was in the range of 168 to 170 °C.

For the molecule `O=c1c(O)c(C#Cc2ccccc2)oc2ccccc12`, the melting point lay within 153 to 154 °C.

As to `CCOC(=O)c1cnc(Nc2ccc(N(C)C)cc2)[nH]c1=O`, the melting point lay in the range of 246 to 248 °C.

The molecule `C=CCNC(=O)N1CC(Sc2ccc(Cl)cc2)C1` came in with a melting point of 88 to 89 °C.

`CC#CC1Cc2ccc(C(=O)CCC(=O)N3CCC(c4ccc(Cl)cc4)CC3)cc2CCN1` (centres undefined) gave a melting point of 132 to 134 °C.

`C=CCO[C@@H]1CC(C(=O)O)=C[C@@H](OC(C)C)[C@@H]1NC(C)=O` returned a melting point of 70 to 71 °C.

`CCC(=O)NC1CCc2ccccc2C1` (centres undefined) showed a melting point of 99 to 101 °C.

Turning to `COc1cc(CCl)ccc1OCc1nc(-c2cccc(OS(C)(=O)=O)c2)oc1C`, the melting point fell in the range of 112 to 114 °C.

In the case of `CCCCCC(CC(=O)Nc1cc(CCC(=O)O)ccc1C(C)(C)C)c1c(OC)cccc1OC` (centres undefined), the melting point is 52 to 53 °C.

On to `Cc1[nH]cc2c(=O)n(-c3ccc(Cl)cc3)nc-2c1-c1ccc(N2CCOCC2)cc1`, for which the melting point was in the range of 306 to 315 °C.

`CC(C)Cn1c(CNC(=O)OC(C)(C)C)c(-c2ccccc2F)c2cc(C(N)=O)ccc2c1=O` gave a melting point of 232 to 233 °C.

As to `CCOC(=O)C(Cc1ccc(S(C)=O)cc1)(NC(C)=O)C(=O)OCC` (centres undefined), the melting point was in the range of 135 to 136 °C.

`O=C(Nc1cccc(S(=O)(=O)Nc2ccccc2)c1)c1cnn2c(C(F)F)cc(-c3ccc(C(F)(F)F)cc3)nc12`: the melting point worked out at 228 °C.

In turn, `COc1ccc(-c2nc3cnccc3[nH]2)c(OCC#N)c1` came in with a melting point of 198 °C.

Molecule `CCc1nnc2c(N(C(C)=O)C(C)=O)nc3ccccc3n12` yielded a melting point of 157 to 159 °C.

Molecule `COc1ccc2c(c1)NC1(CCN(C(C)=O)CC1)c1cccn1-2` showed a melting point of 211 to 213 °C.

The molecule `Nc1cc2[nH]c(=O)c(C(=O)O)nc2cc1F` registered a melting point of more than 300 °C.

Consider `O=C1N[C@@H](Cc2ccccc2)C(c2ccccc2)(c2ccccc2)O1`, for which the melting point fell in the range of 259 to 261 °C.

The molecule `CCOCN1C(C)=C(C(=O)O)C(c2cccc([N+](=O)[O-])c2)C(C(=O)O)=C1C` had a melting point of 175 to 176 °C.

Turning to `COc1ccc(Cc2c(-c3ccc(OC(F)F)c(OC4CC4)c3)[nH]c3cn[nH]c(=O)c23)cn1`, the melting point was 220 to 221 °C.

`c1cncc(CCc2ccc(C3OCCO3)cc2)c1` showed a melting point of 46 to 47 °C.

With `CC#Cc1ccccc1S(N)(=O)=O`, the melting point lay within 147 to 149 °C.

For `Cc1c(SCCCCl)ccnc1CSc1nc2cc(F)ccc2[nH]1`, the melting point lay within 188 to 191 °C.

With `CS(=O)(=O)CS(=O)(=O)Cl`, the melting point is 109 to 111 °C.

Consider `CSc1nn2c(N3CCN(C)CC3)cc(CN3CCOCC3)nc2c1S(=O)(=O)c1ccccc1`, for which the melting point was in the range of 199 to 201 °C.

In turn, `CCC1(CCOC2CCCCO2)C(=O)NNC1=O` (centres undefined) had a melting point of 188 to 191 °C.

`Cc1ccc2c(c1)c1cc(C(=O)O)sc1n2C` displayed a melting point of 216 to 219 °C.

With `OCc1ccc(-c2cccnc2)s1`, the melting point lay in the range of 89 to 90 °C.

`O=C(Nc1ccc(F)cc1)c1nnc2ccccc2c1O` gave a melting point of 280 to 284 °C.

As for `CC1(CCn2c(=O)oc3ccccc32)Cn2cc([N+](=O)[O-])nc2O1` (centres undefined), the melting point lay within 193 to 195 °C.

`COc1ccc(Cn2c(=O)c3nccnc3n(CCCCBr)c2=O)cc1` displayed a melting point of 117 to 119 °C.

`COc1cc(C=C[N+](=O)[O-])ccc1OCc1cccc2ccccc12`: the melting point was 120 to 123 °C.

On to `Cc1cc(N2CCC=C(C(N)=O)C2)c2cccc(-c3ccc(Cl)cc3Cl)c2n1`, for which the melting point was 230 to 232 °C.

Molecule `CN1CCN(c2nn(C(=O)c3ccccc3)c3ccccc23)CC1` showed a melting point of 104 to 106 °C.

`O=C(O)CCCCN1CCN(C2=Nc3ccccc3Sc3ccc(Cl)cc32)CC1` registered a melting point of 220 to 221 °C.

`COC(=O)C(C)Oc1ccc(NC(=O)CCCCCOCc2ccccc2)cc1` (centres undefined) came in with a melting point of 73 to 76.5 °C.

Molecule `NS(=O)(=O)c1cc(C(=O)O)cc([N+](=O)[O-])c1Oc1ccc(Cl)cc1` gave a melting point of 248 °C.

On to `CCCCOC(=O)CNC(=O)c1nc2ccc(Cl)cc2cc1OCc1ccccc1`, for which the melting point lay within 121 to 123 °C.

In turn, `Cc1ncccc1-c1cncc(OC2SCC(O)C(O)C2O)c1` (centres undefined) showed a melting point of 204 to 207 °C.

With `N#Cc1c(Br)c(-c2ccc(Cl)cc2)n(C(=O)c2ccccc2)c1Cl`, the melting point fell in the range of 179 to 181 °C.

On to `Cc1ncccc1Cn1nnnc1-c1ccc(Cl)c(Cl)c1`, for which the melting point lay within 176 to 178 °C.

`CSC1=NC(C)(C)CN1C(=O)Nc1c(C)cccc1C` yielded a melting point of 178 to 179 °C.

Regarding `CN(C(CCn1c(=O)[nH]c2ccsc2c1=O)C(=O)NO)S(=O)(=O)c1ccc(Oc2cccc(Cl)c2)cc1` (centres undefined), the melting point was 192 to 194 °C.

As to `CC(C)(C)c1ccc(C(=O)Nc2cn3cc(-c4cccnc4)ccc3n2)cc1`, the melting point was in the range of 288 to 289 °C.

Regarding `CC(C)n1c(/C=C/COc2ccc(C(=O)C(=O)O)cc2)c(-c2ccc(F)cc2)c2ccccc21`, the melting point was in the range of 151 to 152 °C.

`Cc1c(-c2cncn2C)[nH]c(=O)c2c1ccc1nc(Nc3c(Cl)cccc3Cl)n(C)c12` had a melting point of more than 300 °C.

With `COc1ccc(S(=O)(=O)n2ccc3cccc(-c4ccc(C#N)cc4)c32)cc1`, the melting point was in the range of 164 to 166 °C.

With `COc1cc(N2C(=S)N3CCCCC3C2O)c(F)cc1Cl` (centres undefined), the melting point was in the range of 208 to 215 °C.

`O=S(=O)(Nc1ccc2c(OCc3ccc(Cl)cc3Cl)cccc2c1)C(F)(F)F` showed a melting point of 142 to 144 °C.

Turning to `O=C(Nc1ccc(-c2ccccc2Cl)[nH]c1=O)OCc1ccccc1`, the melting point is 213 to 215 °C.

In the case of `CCOC(=O)c1cc2cc(-c3ccc(N)cc3)ccc2o1`, the melting point was in the range of 95 to 97 °C.

`O=C(Nc1ccc(-n2nc(C(F)(F)F)cc2C(F)(F)F)cc1)c1ccc(Cl)cc1F` gave a melting point of 156 to 158 °C.

With `COC(=O)c1cc(Oc2c(Cl)cc(C(F)(F)F)cc2Cl)n[nH]1`, the melting point is 114 to 116 °C.

`COCCOc1ccc2ccc(N)nc2n1` gave a melting point of 176 °C.

For `CSc1ccc(N)c([N+](=O)[O-])c1`, the melting point was 72 to 73 °C.

As for `O=c1cc2c(nn1Cc1ccc(Cl)cc1)-c1cc(Br)sc1SCC2`, the melting point fell in the range of 152 to 154 °C.
